tested on: Aβ1-42 production; assay: Cellular assay for inhibition of Aβ1-42 production (H4 APP751 SWE clone 8.20); assay type: cell-based; conditions: 19 h, H4 APP751 SWE clone 8.20 cells, 19 h incubation; read-out: Activity Rating (Aβ42 cellular IC50, given as a number)
Method in brief: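 Aβ42 level read with antibodies 565, against the Aβ42 neoepitope, and N-terminal 26D6, incubated overnight at 4° C, after exposure of H4 APP751 SWE clone 8.20 cells to compound for 19 h at 37° C. Medium was DMEM plus 0.0125% BSA, 1.5×10^4 cells/well. IC50 values come from curve fitting.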

Structure (SMILES)	IC50 [nM]
COc1cc(Nc2nc3n(n2)CCCCC3c2ccc(F)cc2)cnc1-n1cnc(Cl)c1 (stereo not drawn) [Example 86, N-(6-(4-chloro-1H-imidazol-1-yl)-5-methoxypyridin-3-yl)-9-(4-fluorophenyl)-6,7,8,9-tetrahydro-5H-[1,2,4]triazolo[1,5-a]azepin-2-amine]	6
COc1cc(Nc2cc3n(n2)C(c2ccc(F)cc2)CCC3)ccc1-n1cnc(Cl)c1 (stereo not drawn) [Example 90, N-(4-(4-chloro-1H-imidazol-1-yl)-3-methoxyphenyl)-7-(4-fluorophenyl)-4,5,6,7-tetrahydropyrazolo[1,5-a]pyridin-2-amine]	12
COc1cc(Nc2nc3n(n2)CCCCC3(O)c2ccc(F)cc2)ccc1-n1cnc(Cl)c1 (stereo not drawn) [Example 92, 2-(4-(4-chloro-1H-imidazol-1-yl)-3-methoxyphenylamino)-9-(4-fluorophenyl)-6,7,8,9-tetrahydro-5H-[1,2,4]triazolo[1,5-a]azepin-9-ol]	11
Cc1nc(C)n(-c2ccc(Nc3nc4n(n3)CCCCC4c3ccc(OCC(F)F)cc3)cc2F)n1 (stereo not drawn) [Example 109, 9-(4-(2,2-difluoroethoxy)phenyl)-N-(4-(3,5-dimethyl-1H-1,2,4-triazol-1-yl)-3-fluorophenyl)-6,7,8,9-tetrahydro-5H-[1,2,4]triazolo[1,5-a]azepin-2-amine 2,2,2-trifluoroacetate]	240
COc1cc(Nc2nc3n(n2)CCCCC3c2ccc(S(C)(=O)=O)cc2)ccc1-n1cnc(C)n1 (stereo not drawn) [Example 129, N-(3-methoxy-4-(3-methyl-1H-1,2,4-triazol-1-yl)phenyl)-9-(4-(methylsulfonyl)phenyl)-6,7,8,9-tetrahydro-5H-[1,2,4]-triazolo[1,5-a]azepin-2-amine 2,2,2-trifluoroacetate]	1000

same assay, conditions: 19 h, H4 APP751 SWE clone 8.20 cells, 19 h incubation; read-out: Activity Rating (based on Aβ42 cellular IC50 values)

Structure (SMILES)	IC50 [nM]
COc1cc(Nc2nc3c(s2)CCCC3(NCc2ccc(Cl)cc2)c2ccccc2)ccc1-n1cnc(Cl)c1 (stereo not drawn) [Example 83, N2-(4-(4-chloro-1H-imidazol-1-yl)-3-methoxyphenyl)-N4-(4-chlorobenzyl)-4-phenyl-4,5,6,7-tetrahydrobenzo[d]thiazole-2,4-diamine]	100 to 1000
COc1cc(Nc2nc3c(s2)CC(OC)(OC)CC3c2ccc(F)cc2)ccc1-n1cnc(Cl)c1 (stereo not drawn) [Example 84, N-(4-(4-chloro-1H-imidazol-1-yl)-3-methoxyphenyl)-4-(4-fluorophenyl)-6,6-dimethoxy-4,5,6,7-tetrahydrobenzo[d]thiazol-2-amine]	10 to 100
COc1cc(Nc2nc3c(s2)CCCCC3c2ccc(F)cc2)ccc1-n1cnc(Cl)c1 (stereo not drawn) [Example 85, N-(4-(4-chloro-1H-imidazol-1-yl)-3-methoxyphenyl)-4-(4-fluorophenyl)-5,6,7,8-tetrahydro-4H-cyclohepta[d]thiazol-2-amine 2,2,2-trifluoroacetate]	10 to 100
COc1cc(Nc2nc3n(n2)C(c2ccc(F)cc2)CCC3)ccc1-n1cnc(Cl)c1 (stereo not drawn) [Example 89, N-(4-(4-chloro-1H-imidazol-1-yl)-3-methoxyphenyl)-5-(4-fluorophenyl)-5,6,7,8-tetrahydro-[1,2,4]triazolo[1,5-a]pyridin-2-amine 2,2,2-trifluoroacetate]	10 to 100
Cc1ncnn1-c1ccc(Nc2nc3n(n2)CCCCC3c2ccc(F)cc2)cc1F (stereo not drawn) [Example 93, N-(3-fluoro-4-(5-methyl-1H-1,2,4-triazol-1-yl)phenyl)-9-(4-fluorophenyl)-6,7,8,9-tetrahydro-5H-[1,2,4]triazolo[1,5-a]azepin-2-amine]	10 to 100
Cc1ncn(-c2ccc(Nc3nc4n(n3)CCCCC4c3ccc(OC(F)(F)F)cc3)cc2F)n1 (stereo not drawn) [Example 96, N-(3-fluoro-4-(3-methyl-1H-1,2,4-triazol-1-yl)phenyl)-9-(4-(trifluoromethoxy)phenyl)-6,7,8,9-tetrahydro-5H-[1,2,4]triazolo[1,5-a]azepin-2-amine]	< 10
Cc1ncnn1-c1ccc(Nc2nc3n(n2)CCCCC3c2ccc(OC(F)(F)F)cc2)cc1F (stereo not drawn) [Example 99, N-(3-fluoro-4-(5-methyl-1H-1,2,4-triazol-1-yl)phenyl)-9-(4-(trifluoromethoxy)phenyl)-6,7,8,9-tetrahydro-5H-[1,2,4]triazolo[1,5-a]azepin-2-amine]	10 to 100
COc1cc(Nc2nc3n(n2)CCCCC3c2ccc(OC(C)C)cc2)ccc1-n1cnc(Cl)c1 (stereo not drawn) [Example 102, N-(4-(4-chloro-1H-imidazol-1-yl)-3-methoxyphenyl)-9-(4-isopropoxyphenyl)-6,7,8,9-tetrahydro-5H-[1,2,4]triazolo azepin-2-amine]	< 10
COc1cc(Nc2nc3n(n2)CCCCC3c2ccc(OCC(F)(F)F)cc2)ccc1-n1cnc(Cl)c1 (stereo not drawn) [Example 105, N-(4-(4-chloro-1H-imidazol-1-yl)-3-methoxyphenyl)-9-(4-(2,2,2-trifluoroethoxy)phenyl)-6,7,8,9-tetrahydro-5H-[1,2,4]triazolo[1,5-a]azepin-2-amine]	10 to 100
Cc1ncn(-c2c(F)cc(Nc3nc4n(n3)CCCCC4c3ccc(OC(F)(F)F)cc3)cc2F)n1 (stereo not drawn) [Example 108, N-(3,5-difluoro-4-(3-methyl-1H-1,2,4-triazol-1-yl)phenyl)-9-(4-(trifluoromethoxy)phenyl)-6,7,8,9-tetrahydro-5H-[1,2,4]triazolo[1,5-a]azepin-2-amine]	10 to 100
Cc1ncnn1-c1ccc(Nc2nc3n(n2)CCCCC3c2ccc(OCC(F)(F)F)cc2)cc1F (stereo not drawn) [Example 110, N-(3-fluoro-4-(5-methyl-1H-1,2,4-triazol-1-yl)phenyl)-9-(4-(2,2,2-trifluoroethoxy)phenyl)-6,7,8,9-tetrahydro-5H-[1,2,4]triazolo[1,5-a]azepin-2-amine]	10 to 100
Cc1ncn(-c2ccc(Nc3nc4n(n3)CCCCC4c3ccc(OCC(F)(F)F)cc3)cc2F)n1 (stereo not drawn) [Example 113, N-(3-fluoro-4-(3-methyl-1H-1,2,4-triazol-1-yl)phenyl)-9-(4-(2,2,2-trifluoroethoxy)phenyl)-6,7,8,9-tetrahydro-5H-[1,2,4]triazolo[1,5-a]azepin-2-amine]	10 to 100
COc1cc(Nc2nc3n(n2)CCCCC3c2ccc(OCC(F)(F)F)cc2)c(F)cc1-n1cnc(C)n1 (stereo not drawn) [Example 116, N-(2-fluoro-5-methoxy-4-(3-methyl-1H-1,2,4-triazol-1-yl)phenyl)-9-(4-(2,2,2-trifluoroethoxy)phenyl)-6,7,8,9-tetrahydro-5H-[1,2,4]triazolo[1,5-a]azepin-2-amine]	10 to 100
Cc1ncnn1-c1ccc(Nc2nc3n(n2)CCCCC3c2ccc(OCC(F)F)cc2)cc1F (stereo not drawn) [Example 119, 9-(4-(2,2-difluoroethoxy)phenyl)-N-(3-fluoro-4-(5-methyl-1H-1,2,4-triazol-1-yl)phenyl)-6,7,8,9-tetrahydro-5H-[1,2,4]triazolo[1,5-a]azepin-2-amine]	10 to 100
Cc1ncn(-c2ccc(Nc3nc4n(n3)CCCC4c3ccc(OC(F)(F)F)cc3)cc2F)n1 (stereo not drawn) [Example 122, N-(3-fluoro-4-(3-methyl-1H-1,2,4-triazol-1-yl)phenyl)-8-(4-(trifluoromethoxy)phenyl)-5,6,7,8-tetrahydro-[1,2,4]triazolo[1,5-a]pyridin-2-amine 2,2,2-trifluoroacetate]	10 to 100
COc1cc(Nc2nc3n(n2)CCCCC3c2ccc(OC(F)F)cc2)ccc1-n1cnc(C)n1 (stereo not drawn) [Example 127, 9-(4-(difluoromethoxy)phenyl)-N-(3-methoxy-4-(3-methyl-1H-1,2,4-triazol-1-yl)phenyl)-6,7,8,9-tetrahydro-5H-[1,2,4]triazolo[1,5-a]azepin-2-amine 2,2,2-trifluoroacetate]	10 to 100
COc1cc(Nc2nc3n(n2)CCCCC3c2ccc(OC(F)(F)F)c(F)c2)ccc1-n1cnc(C)n1 (stereo not drawn) [Example 128, 9-(3-fluoro-4-(trifluoromethoxy)phenyl)-N-(3-methoxy-4-(3-methyl-1H-1,2,4-triazol-1-yl)phenyl)-6,7,8,9-tetrahydro-5H-[1,2,4]triazolo[1,5-a]azepin-2-amine 2,2,2-trifluoroacetate]	10 to 100
COc1cc(Nc2nc3n(n2)CCCCC3c2ccc(S(=O)(=O)C(F)(F)F)cc2)ccc1-n1cnc(C)n1 (stereo not drawn) [Example 130, N-(3-methoxy-4-(3-methyl-1H-1,2,4-triazol-1-yl)phenyl)-9-(4-(trifluoromethylsulfonyl)phenyl)-6,7,8,9-tetrahydro-5H-[1,2,4]triazolo[1,5-a]azepin-2-amine 2,2,2-trifluoroacetate]	10 to 100
CCOc1ccc(C2CCCCn3nc(Nc4ccc(-n5cnc(Cl)c5)c(OC)c4)nc32)cc1 (stereo not drawn) [Example 131, N-(4-(4-chloro-1H-imidazol-1-yl)-3-methoxyphenyl)-9-(4-ethoxyphenyl)-6,7,8,9-tetrahydro-5H-[1,2,4]triazolo[1,5-a]azepin-2-amine 2,2,2-trifluoroacetate]	10 to 100
CCOc1ccc(C2CCCCn3nc(Nc4ccc(-n5cnc(C)n5)c(OC)c4)nc32)cc1 (stereo not drawn) [Example 132, 9-(4-ethoxyphenyl)-N-(3-methoxy-4-(3-methyl-1H-1,2,4-triazol-1-yl)phenyl)-6,7,8,9-tetrahydro-5H-[1,2,4]triazolo[1,5-a]azepin-2-amine 2,2,2-trifluoroacetate]	10 to 100
C=C1CCn2nc(Nc3ccc(-n4cnc(Cl)c4)c(OC)c3)nc2C(c2ccc(F)cc2)C1 (stereo not drawn) [Example 133, N-(4-(4-chloro-1H-imidazol-1-yl)-3-methoxyphenyl)-9-(4-fluorophenyl)-7-methylene-6,7,8,9-tetrahydro-5H-[1,2,4]triazolo[1,5-a]azepin-2-amine 2,2,2-trifluoroacetate]	10 to 100
COc1cc(Nc2nc3n(n2)CCC(C)CC3c2ccc(F)cc2)ccc1-n1cnc(Cl)c1 (stereo not drawn) [Example 136, N-(4-(4-chloro-1H-imidazol-1-yl)-3-methoxyphenyl)-9-(4-fluorophenyl)-7-methyl-6,7,8,9-tetrahydro-5H-[1,2,4]triazolo[1,5-a]azepin-2-amine]	< 10

From US8349880B2, “Bicyclic compounds for the reduction of beta-amyloid production” (Bristol-Myers Squibb Company, priority 2009, dated 2013)
